According to patent publication US5268281A, “Cyclic FR-900520 microbial biotransformation agent” (Merck & Co., Inc., priority 1992, dated 1993):
“Also recorded” adds a separate entry of the source.

Experiments:
[1] = Solubility (physical characteristics); type: physicochemical; settings: in methanol
[2] = tested on: mouse T lymphocytes (Splenic T-cells); assay: T-Cell Proliferation Assay: inhibition of tritiated thymidine uptake in splenic T-cells stimulated with ionomycin + PMA; type: cell-based, mouse (C57Bl/6)
Protocol: The principle of this assay is to measure the proliferation of mouse T lymphocytes stimulated with the combination of ionomycin plus PMA.
Cells were pelleted by centrifugation at 1500 rpm for 8 minutes. Contaminating red cells were removed by treating the pellet with ammonium chloride lysing buffer (GIBCO) for 2 minutes at 4° C. Cold medium was added and cells were again centrifuged at 1500 rpm for 8 minutes. T lymphocytes were then isolated by separation of the cell suspension on nylon wool columns as follows: Nylon wool columns were prepared by packing approximately 4 grams of washed and dried nylon wool into 20 ml plastic syringes. The columns were sterilized by autoclaving at 250° F. for 30 minutes. Nylon wool columns were wetted with warm (37° C.) culture medium and rinsed with the same medium. Washed spleen cells resuspended in warm medium were slowly applied to the nylon wool. The columns were then incubated in an upright position at 37° C. for 1 hour. Non-adherent T lymphocytes were eluted from the columns with warm culture medium and the cell suspensions were spun as above.
The cell suspension was immediately distributed into 96 well flat-bottom microculture plates (Costar) at 200 μl/well. […] The proliferation of T lymphocytes was assessed by measurement of tritiated thymidine incorporation. After 44 hours of culturing, the cells were pulse-labelled with 2 μCi/well of tritiated thymidine (NEN, Cambridge, Mass.). After another 4 hours of incubation, cultures were harvested on glass fiber filters using a multiple sample harvester. Radioactivity of filter discs corresponding to individual wells was measured by standard liquid scintillation counting methods (Betacounter). Mean counts per minute of replicate wells were calculated and the results expressed as percent inhibition of tritiated thymidine uptake (proliferation) as follows: [formula]

[3] = EPO Publication No. 0184162; cited from earlier work

Solubility [1]	SMILES	reversal of inhibition of T-cell proliferation by addition of IL2 ([2]; 50 units/ml recombinant IL2 at the initiation of culture)	FK-506 immunosuppressant activity / immunosuppressive activity in T-cell proliferation assay ([2]; ionomycin plus PMA, result in words)	effectiveness relative to cyclosporin (reputed) [3] [times]	inhibition at 0.01 µg/mL ([2]; Mus musculus, T-cell, 48 h, read-out: inhibition (Standard)) [%]
Solubility in methanol	CC[C@@H]1C=C2COC1(O)C[C@H](O)[C@@H](C)[C@@H](/C(C)=C/[C@@H]1CC[C@@H](O)[C@H](OC)C1)OC(=O)[C@@H]1CCCCN1C(=O)C(=O)[C@]1(O)O[C@H]([C@@H](OC)C[C@@H](C)C2)[C@@H](OC)C[C@H]1C [Compound I]	reversed	positive inhibition of T-cell activation; also recorded: positive immunosuppressive activity	–	–
–	C=CC[C@@H]1/C=C(\C)C[C@H](C)C[C@H](OC)[C@H]2O[C@@](O)(C(=O)C(=O)N3CCCC[C@H]3C(=O)O[C@H](/C(C)=C/[C@@H]3CC[C@@H](O)[C@H](OC)C3)[C@H](C)[C@@H](O)CC1=O)[C@H](C)C[C@@H]2OC [FR900506, reference compound]	–	–	100	99
